The values that follow come from publication PMC7895558, “Antiprotozoal Compounds from Urolepis hecatantha (Asteraceae)” (Evidence-based Complementary and Alternative Medicine : eCAM, 2021).

“And” between values parts separate entries of the source, which are not always exact repeats. Identical values can stand only once. Like-named read-outs stand apart in the source and are kept apart here. Where only a bound is given, the exact number is not on record here.

The test system of data set [1] is Trypanosoma cruzi epimastigotes (Tulahuen 2 strain). Kind of data set: in vitro anti-Trypanosoma cruzi activity (epimastigote growth, absorbance 600 nm). The data set is classed as cell-based. Conditions: for IC50: Trypanosoma cruzi, TULAHUEN, 120 h, read-out: IC50 on T. cruzi epimastigotes. As to the method:
(§1) For the anti-Trypanosoma and anti-Leishmania activity assays, we followed the methods described by Aguilera et al., 2019 [15].
For the in vitro anti-Trypanosoma cruzi activity, epimastigotes of the Tulahuen 2 strain (genotype TcVI) grown in an axenic medium (BHI-Tryptose) were used. Cells from a 5–7-day-old culture were inoculated in a fresh culture medium to give an initial concentration of 10^6 cells/mL. The absorbance at 600 nm of the cells in culture was measured every day. On day five, the medium was inoculated with different doses of the compounds (25–0.05 µM) from a stock solution in dimethylsulfoxide (DMSO) (DMSO concentration in the culture medium never exceeded 0.4%). Control parasites were cultivated in medium with 0.4% DMSO v/v. Benznidazole was used as a positive control. At five days, the absorbance of the culture was measured and compared to the control and the IC50 values were calculated for each compound using OriginLab 8.5® sigmoidal regression. Each experiment was done in duplicate, and each concentration was tested in triplicate.

The next data set is described as follows: cytotoxicity assay (MTT). It is filed as cell-based. The following applies: mouse. As to the method:
The cytotoxicity of the dewaxed dichloromethane extract of U. hecatantha and the isolated compounds was evaluated according to the method described by Aguilera et al., 2019 [15]. The J774.1 murine macrophages (ATCC, USA) were grown in a DMEM culture medium containing 4 mM L-glutamine and supplemented with 10% FCS. Cells were seeded in a 96-well plate (5.00 × 10^4 cells in 200 µL culture medium) and incubated at 37°C in a 5% CO2 atmosphere for 48 h, to allow cell adhesion before drug testing. Afterwards, cells were exposed for 48 h to the compounds (25–400 µM) or the vehicle for control (medium with 0.4% DMSO v/v), and additional control (cells in medium) were used in each test. Cell viability was then assessed by measuring the mitochondria-dependent reduction of MTT [3-(4,5-dimethylthiazol-2-yl)-2,5-diphenyltetrazolium bromide] to formazan. For this purpose, MTT in sterile PBS (containing 0.2% glucose), pH 7.4, was added to the macrophages to achieve a final concentration of 0.1 mg/mL, and the cells were incubated at 37°C for 3 h. After removing the medium, formazan crystals were dissolved in 180 µL of DMSO and 20 µL of MTT buffer (0.1 M glycine, 0.1 M NaCl, 0.5 mM EDTA, pH 10.5), and the absorbance at 560 nm was measured. The CC50 was defined as the drug concentration at which 50% of the cells were viable, relative to the control (no drug added), and was determined using OriginLab 8.5® sigmoidal regression (% of viable cells compared to the logarithm of the compound concentration). Tests were performed in triplicate.

In data set [2] the test system is Leishmania infantum promastigotes. Kind of data set: anti-Leishmania activity (promastigotes, resazurin). The data set is classed as cell-based. The following applies: 48 h, read-out: IC50 on L. infantum promastigotes. As to the method: as §1
Leishmania infantum (MHOM/BR/2002/LPC-RPV) was obtained from Fiocruz (Collection of Oswaldo Cruz Foundation, Rio de Janeiro, Brazil). Promastigotes were cultured as described with some modifications at 28°C in an axenic medium (BHI-Tryptose supplemented with: FBS 10%, hemine 2 × 10^−5 mg/mL, glucose 3.0 × 10^−4 g/mL, streptomycin 2.0 × 10^−4 g/mL, ampicillin 1.3 × 10^−4 g/mL) as a low-cost alternative for Leishmania spp. culture. Assays were performed in 96-well plastic plates using 2 × 10^6 promastigotes per well. Compounds were dissolved in DMSO. Different serial dilutions (25–0.05 µM) of the compounds with a final volume up to 200 µL were added. After 48 h at 28°C, 20 µL of a 2 mM resazurin solution was added, and the oxidation-reduction was quantified at 570 and 600 nm. The resazurin solution was prepared at 2.5 mM in phosphate-buffered solution (PBS), pH 7.4, and filtered through 0.22 µm before use. Resazurin sodium salt was obtained from Sigma-Aldrich (St. Louis, MO, USA) and stored at 4°C protected from light. Glucantime was used as a positive control. The efficacy of each compound was estimated by calculating the IC50 values using OriginLab 8.5® sigmoidal regression. Each antiproliferative experiment was done in duplicate, and each concentration was tested in triplicate.
In general terms: Alamar Blue is a resazurin reagent that responds to reducing activity.

Data set [3] has as its system L6-cell line from rat-skeletal myoblasts. Set-up: method as in PMID 29244495. The following applies: read-out: CC50 on L6 cells; cited from earlier work.
In data set [4] the test system is Trypanosoma brucei rhodesiense trypomastigotes. The following applies: cited from earlier work.
Where [5] appears, read: Leishmania infantum, promastigotes.

Consider `O=C(Cn1ccnc1[N+](=O)[O-])NCc1ccccc1` [benznidazole, reference compound], for which the IC50 (usually the point on the concentration scale where inhibition reaches its midpoint) in data set [1] (epimastigotes, 5 days) came to 7 ± 2 µM.
As to `C=C(C)c1cc2cc(C(C)=O)c(O)cc2o1` [compound 1, euparin], the IC50 in data set [1] is greater than 25 µM; in data set [2] (Leishmania infantum), 18 µM and 3.9 µg/mL. Besides, the CC50 (in general, the concentration giving 50% cytotoxicity) at 48 h in the data set “cytotoxicity assay (MTT)” (murine macrophages) is greater than 25 µM.
For the compound `COc1cc(-c2oc3cc(O)c(OC)c(O)c3c(=O)c2OC)ccc1O` [compound 2, jaceidin], the IC50 in data set [1] (epimastigotes, 5 days) is greater than 25 µM; in data set [2] (setting [5]), greater than 25 µM. For the same compound, in the data set “cytotoxicity assay (MTT)” (J774.1 murine macrophages), the CC50 at 48 h was greater than 25 µM.
Consider `C=C1C(=O)O[C@@H]2/C=C(\C)[C@@H](O)C/C=C(\C)C[C@@H](OC(=O)/C(=C/CO)COC(C)=O)[C@@H]12` [compound 3, santhemoidin C], for which the IC50 is 18 µM and 7.6 µg/mL in data set [1] (epimastigotes, 5 days); 19 µM and 8 µg/mL in data set [2] (setting [5]). Moreover, the CC50 at 48 h in the data set “cytotoxicity assay (MTT)” (J774.1 murine macrophages) was greater than 15 µM.
Turning to `C=C1C(=O)O[C@@H]2/C=C(/C)[C@@H](OC(C)=O)C/C=C(\C)C[C@@H](OC(=O)/C(=C/CO)CO)[C@@H]12` [compound 4, eucannabinolide], the 50% cytotoxic concentration (CC50) was 7.8 ± 0.8 µM in data set [3] and 15 µM in “cytotoxicity assay (MTT)” (murine macrophages, 48 h). The 50% inhibitory concentration (IC50) in data set [1] (epimastigotes, 5 days) was 10 µM and 4.2 µg/mL; in data set [4] (loaded onto polylactic acid nanoparticles, target not restated in the sentence, read-out: free drug equivalent IC50), 3.32 µM; in data set [4] (read-out: IC50 against Trypanosoma brucei rhodesiense trypomastigotes) it was 1.1 ± 0.1 µM; in data set [2] (setting [5]), greater than 25 µM. Further, the “selectivity index (SI) on T. cruzi” value in data set [1] (macrophage CC50 versus T. cruzi epimastigote IC50) came out at 1.5.
Take Glucantime [reference compound]: in data set [2] (promastigotes), the half-inhibitory concentration (IC50) came out at 26 ± 9 µM.
